From patent publication US11096923B2, “Pharmaceutical composition containing polymyxin B/trimethoprim based therapeutics” (University of Rochester, priority 2016, dated 2021)
Like-named read-outs stand apart in the source and are kept apart here.

Assays:
P. aeruginosa = test: MIC of clinical P. aeruginosa ocular isolates (antibiotic susceptibility profiles); assay type: cell-based, Pseudomonas aeruginosa; settings: for MIC: Pseudomonas aeruginosa, read-out: Minimum Inhibitory Concentration
Source text: A series of genotyping and biological assays were used as a preliminary means to evaluate the clonality of clinical P. aeruginosa isolates collected, as follows. Genomic DNA was purified from each isolate using Qiagen DNeasy kits (Hilden, Germany) and used as a template for polymerase chain reactions to detect the presence of the virulence factors exoS, exoY, exoU, exoT, and perV using previously published primers (Table 1). See Allewelt M, Coleman F T, Grout M, Priebe G P, Pier G B. Acquisition of expression of the Pseudomonas aeruginosa ExoU cytotoxin leads to increased bacterial virulence in a murine model of acute pneumonia and systemic spread. Infection and immunity 2000; 68:3998-4004, Lomholt J A, Poulsen K, Kilian M. Epidemic population structure of Pseudomonas aeruginosa: evidence for a clone that is pathogenic to the eye and that has a distinct combination of virulence factors. Infection and immunity 2001; 69, and Ledbetter E C, Mun J J, Kowbel D, Fleiszig S M. Pathogenic phenotype and genotype of Pseudomonas aeruginosa isolates from spontaneous canine ocular infections. Investigative ophthalmology & visual science 2009; 50. […] See Institute C. Performance Standards for Antimicrobial Susceptibility Testing: Twenty-fifth Informational Supplement. Each isolate's ability to form biofilms was quantified. To do so, wells of a polystyrene plate containing 72-hour established biofilms were washed with 0.8% NaCl to remove non adherent cells and stained with crystal violet. To quantify biofilm staining, plates were washed 3 times with H2O, stain was suspended in 30% glacial acetic acid and the optical density (OD600nm) of each well was determined using an automated plate reader, as previously described. See Jacobs A C, Blanchard C E, Catherman S C, Dunman P M, Murata Y. An ribonuclease T2 family protein modulates Acinetobacter baumannii abiotic surface colonization. PloS one 2014; 9.

P. aeruginosa PAO1 = test: Selleck library screen in presence of sub-inhibitory polymyxin B/trimethoprim; assay type: cell-based, Pseudomonas aeruginosa; parameters: key: Growth (+); no growth (−); settings: for P. aeruginosa growth, 5 μM: drug 5 μM in presence of 0.2 μg ml^−1 polymyxin B/trimethoprim; for P. aeruginosa growth, 50 μM: drug 50 μM in presence of 0.2 μg ml^−1 polymyxin B/trimethoprim
Description: (§1) To identify agents that potentiate the antimicrobial activity of polymyxin B/trimethoprim we first determined the highest concentration of the polymyxin B/trimethoprim combination that allowed growth of P. aeruginosa strain PAO1 and S. aureus strain UAMS-1.
For Selleck library screening, individual wells of 96-well microtiter plates containing 88 μl of fresh media were inoculated with approximately 10^5 CFUs of P. aeruginosa strain PAO1 or S. aureus UAMS-1. Next, 2 μl of polymyxin B/trimethoprim was added to a final concentration of 0.2 μg ml^−1 or 1.25 μg ml^−1 for PA01 and UAMS-1, respectively. Library members were then added at either 5 μM or 50 μM final concentration. Plates were incubated at 37° C. for 16 hours and hits were identified as wells with no visible growth. […]

S. aureus UAMS-1 = test: as above; assay type: cell-based, Staphylococcus aureus; parameters: key: Growth (+); no growth (−); settings: for S. aureus growth, 5 μM: drug 5 μM in presence of 1.2 μg ml^−1 polymyxin B/trimethoprim; for S. aureus growth, 50 μM: drug 50 μM in presence of 1.2 μg ml^−1 polymyxin B/trimethoprim
Description: as §1
For Selleck library screening, individual wells of 96-well microtiter plates containing 88 μl of fresh media were inoculated with approximately 10^5 CFUs of P. aeruginosa strain PAO1 or S. aureus UAMS-1. Next, 2 μl of polymyxin B/trimethoprim was added to a final concentration of 0.2 μg ml^−1 or 1.25 μg ml^−1 for PA01 and UAMS-1, respectively. Library members were then added at either 5 μM or 50 μM final concentration. Plates were incubated at 37° C. for 16 hours and hits were identified as wells with no visible growth.
To do so, 10^5 CFUs of S. aureus strain UAMS-1 were inoculated in individual wells of a microtiter plate supplemented with 1.2 μg ml^−1 of polymyxin B/trimethoprim, (0.25×MIC). Library members were added at low (5 μM) or high (50 μM) concentrations and then scored for agents that inhibited growth following overnight incubation. Such agents were expected to represent compounds that display antimicrobial activity on their own and/or that potentiate the antimicrobial activity of polymyxin B/trimethoprim.

P. aeruginosa biofilm = test system: P. aeruginosa biofilm; parameters: key: Killing (+) of established biofilms; settings: established biofilms; adenylate kinase reporter; Blanchard et al., 2016; cited from earlier work
[1] = P. aeruginosa ocular isolate RW01 (cornea)
[2] = P. aeruginosa ocular isolate RW02 (cornea)
[3] = P. aeruginosa ocular isolate RW03 (cornea)
[4] = P. aeruginosa ocular isolate RW04 (conjunctiva)
[5] = P. aeruginosa ocular isolate RW05 (cornea)
[6] = P. aeruginosa ocular isolate RW06 (cornea)
[7] = P. aeruginosa ocular isolate RW07 (cornea)

Compound | P. aeruginosa growth, 5 μM (P. aeruginosa PAO1) | P. aeruginosa growth, 50 μM (P. aeruginosa PAO1) | S. aureus growth, 5 μM (S. aureus UAMS-1) | S. aureus growth, 50 μM (S. aureus UAMS-1) | P. aeruginosa biofilm AK Signal (P. aeruginosa biofilm) | other results
CC1(C)S[C@@H]2[C@H](NC(=O)[C@H](N)c3ccccc3)C(=O)N2[C@H]1C(=O)O [Ampicillin, ampicillin] |  |  |  |  |  | MIC (P. aeruginosa; [1]): 50 µg/mL; MIC (P. aeruginosa; [2]): 50 µg/mL; MIC (P. aeruginosa; [3]): 50 µg/mL; MIC (P. aeruginosa; [4]): 50 µg/mL; MIC (P. aeruginosa; [5]): 100 µg/mL; MIC (P. aeruginosa; [6]): 100 µg/mL; MIC (P. aeruginosa; [7]): 50 µg/mL
CO/N=C(\C(=O)N[C@@H]1C(=O)N2C(C(=O)O)=C(CSc3nc(=O)c(=O)[nH]n3C)CS[C@H]12)c1csc(N)n1 [Ceftriaxone, ceftriaxone] |  |  |  |  |  | MIC (P. aeruginosa; [1]): 13 µg/mL; MIC (P. aeruginosa; [2]): 26 µg/mL; MIC (P. aeruginosa; [3]): 26 µg/mL; MIC (P. aeruginosa; [4]): 26 µg/mL; MIC (P. aeruginosa; [5]): 13 µg/mL; MIC (P. aeruginosa; [6]): 52 µg/mL; MIC (P. aeruginosa; [7]): 26 µg/mL
NC1CCN(c2c(F)cc3c(=O)c(C(=O)O)cn(C4CC4)c3c2Cl)C1 (stereo not drawn) [Clinafloxacin, clinafloxacin] | − | − | − | − | + | 
CN1C[C@@H]2C[C@H]1CN2c1cc2c(cc1F)c(=O)c(C(=O)O)cn2C1CC1 [Danofloxacin, danofloxacin] | − | − | − | − | + | 
CCN1CCN(c2cc3c(cc2F)c(=O)c(C(=O)O)cn3C2CC2)CC1 [Enrofloxacin, enrofloxacin] | − | − | − | − | + | 
C[C@H]1COc2c(N3CCN(C)CC3)c(F)cc3c(=O)c(C(=O)O)cn1c23 [Levofloxacin, levofloxacin] | − | − | + | − |  | 
CCn1cc(C(=O)O)c(=O)c2cc(F)c(N3CCNC(C)C3)c(F)c21 (stereo not drawn) [Lomefloxacin, lomefloxacin] | − | − | − | − | + | 
CC1CCc2c(N3CCC(O)CC3)c(F)cc3c(=O)c(C(=O)O)cn1c23 (stereo not drawn) [Nadifloxacin, nadifloxacin] | − | − | − | − | + | 
CCn1cc(C(=O)O)c(=O)c2cc(F)c(N3CCN(C)CC3)cc21 [Pefloxacin, pefloxacin] | − | − | − | − | + | 
CO[C@H]1/C=C/O[C@@]2(C)Oc3c(C)c(O)c4c(c3C2=O)C2=NC3(CCN(CC(C)C)CC3)NC2=C(NC(=O)/C(C)=C\C=C\[C@H](C)[C@H](O)[C@@H](C)[C@@H](O)[C@@H](C)[C@H](OC(C)=O)[C@@H]1C)C4=O [Rifabutin, rifabutin] | − | − | − | − | + | 
CO[C@H]1/C=C/O[C@@]2(C)Oc3c(C)c(O)c4c(O)c(c(/C=N/N5CCN(C6CCCC6)CC5)c(O)c4c3C2=O)NC(=O)/C(C)=C\C=C\[C@H](C)[C@H](O)[C@@H](C)[C@@H](O)[C@@H](C)[C@H](OC(C)=O)[C@@H]1C [Rifapentine, rifapentine] | − | − | − | − | + | 
CO[C@H]1/C=C/O[C@@]2(C)Oc3c(C)c(O)c4c(O)c(c5c(nc6cc(C)ccn65)c4c3C2=O)NC(=O)/C(C)=C\C=C\[C@H](C)[C@H](O)[C@@H](C)[C@@H](O)[C@@H](C)[C@H](OC(C)=O)[C@@H]1C [Rifaximin, rifaximin] | − | − | − | − | + | 
O=C(O)c1cn(-c2ccc(F)cc2)c2cc(N3CCNCC3)c(F)cc2c1=O [Sarafloxacin, sarafloxacin] | − | − | − | − | + | 
N[C@@H]1CN(c2c(F)cc3c(=O)c(C(=O)O)cn([C@@H]4C[C@@H]4F)c3c2Cl)CC12CC2 [Sitafloxacin, sitafloxacin] | − | − | − | − | + | 
gentamycin |  |  |  |  |  | Minimum Inhibitory Concentration (P. aeruginosa; [1]): 0.24 µg/mL; Minimum Inhibitory Concentration (P. aeruginosa; [2]): 0.24 µg/mL; Minimum Inhibitory Concentration (P. aeruginosa; [3]): 0.12 µg/mL; Minimum Inhibitory Concentration (P. aeruginosa; [4]): 0.48 µg/mL; Minimum Inhibitory Concentration (P. aeruginosa; [5]): 0.48 µg/mL; Minimum Inhibitory Concentration (P. aeruginosa; [6]): 0.48 µg/mL; Minimum Inhibitory Concentration (P. aeruginosa; [7]): 0.24 µg/mL
neomycin |  |  |  |  |  | Minimum Inhibitory Concentration (P. aeruginosa; [1]): 9.8 µg/mL; Minimum Inhibitory Concentration (P. aeruginosa; [2]): 9.8 µg/mL; Minimum Inhibitory Concentration (P. aeruginosa; [3]): 9.8 µg/mL; Minimum Inhibitory Concentration (P. aeruginosa; [4]): 19.6 µg/mL; Minimum Inhibitory Concentration (P. aeruginosa; [5]): 1 µg/mL; Minimum Inhibitory Concentration (P. aeruginosa; [6]): 9.8 µg/mL; Minimum Inhibitory Concentration (P. aeruginosa; [7]): 1 µg/mL
